System: not given
Assay: not given

melting point	SMILES
185.4 to 190.5 °C	Cn1cnc2c(Nc3ccc(Cl)cc3)nc(-c3ccccn3)nc21 [Compound 13.1, (4-Chloro-phenyl)-(9-methyl-2-pyridin-2-yl-9H-purin-6-yl)-amine]

Molecular target: T1, hSK3 channels (Homo sapiens, UniProt Q9UGI6)
T1 construct: expressed in transfected cells; host or cells: HEK293
Assay: Whole-cell patch-clamp recording of ionic current through SK channels, subtype 3, in HEK293 cells expressing hSK3
Type: cell-based
Experimental: The ionic current through small-conductance Ca^2+-activated K^+ channels (SK channels, subtype 3) is recorded using the whole-cell configuration of the patch-clamp technique in a classic patch-clamp set-up using HEK293 tissue culture cells expressing hSK3 channels as described in e.g. WO 2006/100212.
The SC100 value determined is defined as the Stimulating Concentration required for increasing the baseline current by 100%. The below SC100 values are an indication of the SK3 activating properties of the compounds of the invention.

SMILES	SC100 (Stimulating Concentration required for increasing the baseline current by 100%)
Cn1cnc2c(Nc3ccc(Cl)cc3)nc(-n3cccn3)nc21 [Compound 6.2, (4-Chloro-phenyl)-(9-methyl-2-pyrazol-1-yl-9H-purin-6-yl)-amine]	0.18 µM
Cn1cnc2c(NC3CCCCC3)nc(-n3cccn3)nc21 [Compound 6.3, Cyclohexyl-(9-methyl-2-pyrazol-1-yl-9H-purin-6-yl)-amine]	0.7 µM
Cc1ccn(-c2nc(Nc3ccc(F)cc3)c3ncn(C)c3n2)n1 [Compound 6.6, (4-Fluoro-phenyl)-[9-methyl-2-(3-methyl-pyrazol-1-yl)-9H-purin-6-yl]-amine]	0.02 µM
Cn1cnc2c(Nc3ccc(Cl)cc3)nc(-n3ccc(C(F)(F)F)n3)nc21 [Compound 6.1, (4-Chloro-phenyl)-[9-methyl-2-(3-trifluoromethyl-pyrazol-1-yl)-9H-purin-6-yl]-amine]	0.3 µM

Next, values leading:

SC100 (Stimulating Concentration required for increasing the baseline current by 100%)	SMILES
0.02 µM	Cc1ccn(-c2nc(Nc3ccc(Cl)cc3)c3ncn(C)c3n2)n1 [Compound 9.1, (4-Chloro-phenyl)-[9-methyl-2-(3-methyl-pyrazol-1-yl)-9H-purin-6-yl]-amine]
0.15 µM	Cc1c2c(nn1-c1nc(Nc3ccc(F)cc3)c3ncn(C)c3n1)CCC2 [Compound 9.5, (4-Fluoro-phenyl)-[9-methyl-2-(3-methyl-5,6-dihydro-4H-cyclopentapyrazol-2-yl)-9H-purin-6-yl]-amine]
0.6 µM	Cn1cnc2c(Nc3ccc(Cl)cc3)nc(-n3ccc(N)n3)nc21 [Compound 7.1, [2-(3-Amino-pyrazol-1-yl)-9-methyl-9H-purin-6-yl]-(4-chloro-phenyl)-amine]
0.6 µM	Cc1ccn(-c2nc(NCCc3ccccc3)c3ncn(C)c3n2)n1 [Compound 9.3, [9-Methyl-2-(3-methyl-pyrazol-1-yl)-9H-purin-6-yl]-phenethyl-amine]
